In assay [1] the test system is HIV RF (HIV-1 RNA) in MT-2 cells. The experiment in a line: Quantitation of cell associated HIV-1 RNA in infected MT-2 cells (correlation study). Type of assay: cell-based, HIV-1 (strain RF). The note with it: for IC90 for HIV-1 RNA compared with IC90 for yield of infectious virus / cell associated RNA: 72 hours, MT-2 cells, HIV RF; for IC90: Human immunodeficiency virus 1, MT2, 72 h, 72 hrs after infection. How it is done: HIV-1 infected cell lysates from MT-2 cells grown for 24, 48 and 72 hours after infection with different initial multiplicities of infection (MOI, e.g., TCID 50 per cell) of HIV-1RF were prepared by the cell pelleting method as described in Example 5. The tissue culture infectious dose (TCID 50) for HIV-1 RF stocks were determined in MT-2 cells by a modification of the method of Johnson et al., "Infectivity Assay", Techniques in HIV Research, Aldovina et al. (1990) wherein the tissue culture medium was not changed after four days. 40 μl of the lysate and 5 μl of 1 μM biotinylated `pol` oligo were combined with GED to a final volume of 100 μl and a GED concentration of 3M and a final biotinylated `pol` oligo concentration of 50 nM. Hybridization was carried out overnight at 37° C. in sealed polypropylene tubes. Each sample was diluted three-fold with deionized water to a final GED concentration of 1M and aliquots (120 μl) transferred to streptavidin coated microtiter plate wells. The biotin oligo-RNA complex solution was incubated with the immobilized streptavidin for two hours at room temperature, after which the plates were washed six times with DuPont ELISA plate wash buffer (phosphate buffered saline (PBS)/0.05% Tween 20) with a Denley plate washer. A second hybridization was carried out by adding 120 μl of hybridization cocktail containing 4× standard saline citrate (0.15M NaCl, 0.015 sodium citrate) (SSC), 0.66% Triton X-100 and 6.66% deionized formamide, 1 mg/ml bovine serum albumin (BSA) and 5 nM `pol` AP reporter oligo to each well. After hybridization for one hour at 37° C., the plate was again washed six times in PBS/0.05% Tween 20. Alkaline phosphatase activity was detected by addition of 100 μl of substrate detection buffer, consisting of: 0.2 mM 4-methylumbelliferyl phosphate (MUBP, JBL Scientific) in 2.5M diethanolamine pH 8.9 (JBL), 10 mM MgCl2, 5 mM Zinc acetate dihydrate, and 5 mM n-hydroxyethyl-ethylene-diamine-triacetic acid. The plates were incubated at 37° C. Fluorescence was measured using a microplate fluorometer (Dynateck) exciting at 365 nm and emitting at 450 nm. […] At MOI's greater than 1 for cells cultured 72 hours after infection the level of HIV-1RNA was diminished by cell death that occurs as a result of extensive virus replication.
MT-2 cells were infected by resuspension in medium (Dulbecco's Modified Eagles, 5% Fetal calf serum, 50 ug/ml glutamine, 50 ug/ml gentamycin) containing either 1 ×10^6 TCID 50/ ml (FIGS. 7 and 9) or 2.5×10^5 TCID 50/ml of HIV RF virus (FIGS. 8 and 9) to a final concentration of 5×10^5 cells/ml, with or without various concentrations of AZT or P9941 which is (2S,3R,4R, 5S)-N,N'-[(2-pyridylacetyl)-L-isoleucyl]-2,5-diamino-1,6-diphenyl-hexane-3,4-diol as described in WO91/18866, the disclosure of which is incorporated by reference. After incubation for four hours at 37° C., the cells were pelleted, the supernatant medium removed, and cells resuspended in an equal volume of medium ± compound without added virus. Culture was continued for a total of 72 hours at 37° C. after which time cells were pelleted, lysed by addition of 5M GED, and stored frozen at -70° C. until quantitation of HIV-1 RNA by the method described in Example 8 except that the `gag` capture/reporter probe set as described in Example 2 was employed. Supernatant medium from each sample was frozen at -120° C. until determination of yield of infectious virus by plaque assay as described in Example 11. […] Both cell associated RNA and yield of infectious virus were reduced by treatment with either AZT, a reverse transcriptase inhibitor, or P9941, an inhibitor of the HIV encoded protease. The concentration of AZT or P9941 required to inhibit HIV-1 RNA by 90% (IC90) was equivalent to the concentration of AZT or P9941 required to inhibit the yield of infectious virus by 90% (IC90). The concentrations of antiviral compound required to inhibit either HIV-1 RNA or yield of infectious virus by 90% (IC90) were very similar. […]

Assay [2] deals with HIV RF (infectious virus) in MT-2 cells. The experiment in a line: Yield of infectious virus by plaque assay (yield reduction assay) in MT-2 cells. The class given is cell-based, HIV-1 (strain RF). The note with it: for yield of infectious virus: 72 hours, MT-2 cells, HIV RF; for IC90: Human immunodeficiency virus 1, MT2, 72 h. How it is done:
Test compounds were dissolved in dimethylsulfoxide to 5 mg/ml and serially diluted into RPMI 1640 medium to 10 times the desired final concentration. MT-2 cells (5×10^5 /ml) in 2.3 ml were mixed with 0.3 ml of the appropriate test compound solution and allowed to sit for 30 minutes at room temperature. HIV-1 IIIB or HIV-1 RF virus (~5×10^5 plaque forming units/ml) in 0.375 ml was added to the cell and compound mixtures and incubated for one hour at 36° C. The mixtures were centrifuged at 1000 rpm for 10 minutes and the supernatants containing unattached virus were discarded. The cell pellets were suspended in fresh RPMI 1640 containing the appropriate concentrations of test compound and placed in a 36° C., 4% CO2 incubator. Virus was allowed to replicate for three days. Cultures were centrifuged for 10 minutes at 1000 rpm and the supernatants containing cell free progeny virus removed for plaque assay. Virus suspensions were serially diluted in RPMI 1640 and 1.0 ml of each dilution added to 9 ml of MT-2 cells in RPMI 1640. Cells and virus were incubated for three hours at 36° C. to allow for efficient attachment of the virus to cells. Each virus and cell mixture was aliquoted equally to two wells of a six well poly-L-lysine coated culture plate and incubated overnight at 36° C., 4% CO2. Liquid and unattached cells were removed prior to the addition of 1.5 ml of RPMI 1640 with 0.75% (w/v) Seaplaque agarose (FMC Corp) and 5% FCS. Plates were incubated for three days and a second RPMI 1640/agarose overlay added. After an additional three days at 36° C., 4% CO2, a final overlay of PBS with 0.75% Seaplaque agarose and 1 mg/ml MTT was added. The plates were incubated overnight at 36° C. Clear plaques on a purple background were counted and the number of plaque forming units of virus calculated for each sample. The virus titers of the progeny virus produced in the presence or absence of test compounds was determined by plaque assay as described above. The antiviral activity of test compounds was determined by the percent reduction in the virus titer with respect to virus grown in the absence of any inhibitors.
MT-2 cells were infected by resuspension in medium (Dulbecco's Modified Eagles, 5% Fetal calf serum, 50 ug/ml glutamine, 50 ug/ml gentamycin) containing either 1 ×10^6 TCID 50/ ml (FIGS. 7 and 9) or 2.5×10^5 TCID 50/ml of HIV RF virus (FIGS. 8 and 9) to a final concentration of 5×10^5 cells/ml, with or without various concentrations of AZT or P9941 which is (2S,3R,4R, 5S)-N,N'-[(2-pyridylacetyl)-L-isoleucyl]-2,5-diamino-1,6-diphenyl-hexane-3,4-diol as described in WO91/18866, the disclosure of which is incorporated by reference. After incubation for four hours at 37° C., the cells were pelleted, the supernatant medium removed, and cells resuspended in an equal volume of medium ± compound without added virus. Culture was continued for a total of 72 hours at 37° C. after which time cells were pelleted, lysed by addition of 5M GED, and stored frozen at -70° C. until quantitation of HIV-1 RNA by the method described in Example 8 except that the `gag` capture/reporter probe set as described in Example 2 was employed. Supernatant medium from each sample was frozen at -120° C. until determination of yield of infectious virus by plaque assay as described in Example 11. […] Both cell associated RNA and yield of infectious virus were reduced by treatment with either AZT, a reverse transcriptase inhibitor, or P9941, an inhibitor of the HIV encoded protease. The concentration of AZT or P9941 required to inhibit HIV-1 RNA by 90% (IC90) was equivalent to the concentration of AZT or P9941 required to inhibit the yield of infectious virus by 90% (IC90). The concentrations of antiviral compound required to inhibit either HIV-1 RNA or yield of infectious virus by 90% (IC90) were very similar. For both HIV RNA and yield of infectious virus, this IC90 value was affected by the initial MOI (Table 1).

≈ marks a conversion by molar mass, not a printed value. Read-outs that look alike come from different tables or passages of the source.

Broadly, the IC90 is the concentration at which the effect reaches the 90% level.

Turning to `Cc1cn([C@H]2C[C@H](N=[N+]=[N-])[C@@H](CO)O2)c(=O)[nH]c1=O` [AZT], the “IC90 for HIV-1 RNA compared with IC90 for yield of infectious virus” value in assay [1] is “equivalent”. Further, the “cell associated RNA” value in assay [1] is listed as “reduced”. Moreover, the IC90 in assay [1] (MOI = 0.5) turned out to be 0.12 µg/mL (≈ 0.449 µM); in assay [1] (MOI = 2.0), 0.2 µg/mL (≈ 0.748 µM); in assay [2] (read-out: IC90, PFU, 72 hrs after infection, MOI = 0.5), 0.09 µg/mL (≈ 0.337 µM); in assay [2] (read-out: IC90, PFU, 72 hrs after infection, MOI = 2.0), 0.28 µg/mL (≈ 1.05 µM). For the same compound, in assay [2], the “yield of infectious virus” value was “reduced”.

Take `CC[C@H](C)[C@H](NC(=O)Cc1ccccn1)C(=O)N[C@@H](Cc1ccccc1)[C@@H](O)[C@H](O)[C@H](Cc1ccccc1)NC(=O)[C@@H](NC(=O)Cc1ccccn1)[C@@H](C)CC` [P9941, (2S,3R,4R, 5S)-N,N'-[(2-pyridylacetyl)-L-isoleucyl]-2,5-diamino-1,6-diphenyl-hexane-3,4-diol]: in assay [1], the “IC90 for HIV-1 RNA compared with IC90 for yield of infectious virus” value is listed as “equivalent”. Moreover, in assay [1], the “cell associated RNA” value was “reduced”. Also, the IC90 in assay [1] (MOI = 0.5) was 0.55 µg/mL (≈ 0.719 µM); in assay [1] (MOI = 2.0), 1.5 µg/mL (≈ 1.96 µM); in assay [2] (72 hrs after infection, MOI = 0.5, read-out: IC90, PFU), 0.38 µg/mL (≈ 0.497 µM); in assay [2] (72 hrs after infection, MOI = 2.0, read-out: IC90, PFU), 1 µg/mL (≈ 1.31 µM). The “yield of infectious virus” value in assay [2] was “reduced”.

Source of the values: US5726012A, “Rapid, high capacity nucleic acid based assay” (E. I. du Pont de Nemours and Company, priority 1994, dated 1998).
